Assay [1] deals with T1, Histone-lysine N-methyltransferase EHMT2 (Homo sapiens) (UniProt Q96KQ7).
T1 sequence (whole entry): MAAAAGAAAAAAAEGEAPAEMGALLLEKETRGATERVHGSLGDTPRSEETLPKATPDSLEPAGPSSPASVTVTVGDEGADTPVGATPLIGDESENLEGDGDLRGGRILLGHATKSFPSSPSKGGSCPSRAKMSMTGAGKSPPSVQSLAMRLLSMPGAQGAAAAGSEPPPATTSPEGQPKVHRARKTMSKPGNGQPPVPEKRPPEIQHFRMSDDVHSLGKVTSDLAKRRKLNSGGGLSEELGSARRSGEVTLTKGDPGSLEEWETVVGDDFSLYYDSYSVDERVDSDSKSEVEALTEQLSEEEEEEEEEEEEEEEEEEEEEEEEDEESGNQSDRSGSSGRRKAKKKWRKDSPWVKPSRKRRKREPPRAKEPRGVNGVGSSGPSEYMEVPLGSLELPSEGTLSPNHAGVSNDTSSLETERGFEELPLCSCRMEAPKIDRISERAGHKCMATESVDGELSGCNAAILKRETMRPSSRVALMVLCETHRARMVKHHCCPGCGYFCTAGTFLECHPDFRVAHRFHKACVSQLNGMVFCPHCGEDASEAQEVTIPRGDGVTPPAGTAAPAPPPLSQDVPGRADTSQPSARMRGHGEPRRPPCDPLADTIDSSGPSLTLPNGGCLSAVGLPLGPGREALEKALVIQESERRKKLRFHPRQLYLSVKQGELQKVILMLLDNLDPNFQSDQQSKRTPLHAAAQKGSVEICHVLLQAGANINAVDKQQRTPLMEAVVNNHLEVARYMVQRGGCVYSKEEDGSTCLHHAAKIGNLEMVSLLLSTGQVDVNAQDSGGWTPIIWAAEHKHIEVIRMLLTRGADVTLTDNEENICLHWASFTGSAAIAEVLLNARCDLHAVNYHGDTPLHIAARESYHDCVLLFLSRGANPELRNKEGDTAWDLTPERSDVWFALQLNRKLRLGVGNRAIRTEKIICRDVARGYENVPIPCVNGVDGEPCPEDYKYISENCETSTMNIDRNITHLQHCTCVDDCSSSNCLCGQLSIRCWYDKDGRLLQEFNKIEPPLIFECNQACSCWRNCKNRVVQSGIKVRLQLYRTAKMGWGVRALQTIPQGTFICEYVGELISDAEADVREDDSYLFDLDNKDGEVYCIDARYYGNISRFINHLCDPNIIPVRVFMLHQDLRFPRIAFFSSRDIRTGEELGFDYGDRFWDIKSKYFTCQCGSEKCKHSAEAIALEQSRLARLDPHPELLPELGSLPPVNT
The experiment in a line: Inhibition of N-terminal/C-terminal His-tagged human recombinant G9a (913 to 1193 residues) at higher concentration using histone H3 (1 to 21 residues) as substrate and 3H-SAM as cosubstrate incubated for 60 mins by scintillation counter analysis.

Assay [2] deals with Histone-lysine N-methyltransferase, H3 lysine-79 specific (Homo sapiens) (UniProt Q8TEK3). The assay is described as follows: Inhibition of N-terminal/C-terminal His/GST-tagged human recombinant DOT1L (1 to 416 residues) at 10 uM using oligo nucleosome as substrate and 3H-SAM as cosubstrate incubated for 60 mins by scintillation counter analysis.
In assay [3] the target is T2, Protein arginine N-methyltransferase 7 (Homo sapiens) (UniProt Q9NVM4).
T2 sequence (whole entry): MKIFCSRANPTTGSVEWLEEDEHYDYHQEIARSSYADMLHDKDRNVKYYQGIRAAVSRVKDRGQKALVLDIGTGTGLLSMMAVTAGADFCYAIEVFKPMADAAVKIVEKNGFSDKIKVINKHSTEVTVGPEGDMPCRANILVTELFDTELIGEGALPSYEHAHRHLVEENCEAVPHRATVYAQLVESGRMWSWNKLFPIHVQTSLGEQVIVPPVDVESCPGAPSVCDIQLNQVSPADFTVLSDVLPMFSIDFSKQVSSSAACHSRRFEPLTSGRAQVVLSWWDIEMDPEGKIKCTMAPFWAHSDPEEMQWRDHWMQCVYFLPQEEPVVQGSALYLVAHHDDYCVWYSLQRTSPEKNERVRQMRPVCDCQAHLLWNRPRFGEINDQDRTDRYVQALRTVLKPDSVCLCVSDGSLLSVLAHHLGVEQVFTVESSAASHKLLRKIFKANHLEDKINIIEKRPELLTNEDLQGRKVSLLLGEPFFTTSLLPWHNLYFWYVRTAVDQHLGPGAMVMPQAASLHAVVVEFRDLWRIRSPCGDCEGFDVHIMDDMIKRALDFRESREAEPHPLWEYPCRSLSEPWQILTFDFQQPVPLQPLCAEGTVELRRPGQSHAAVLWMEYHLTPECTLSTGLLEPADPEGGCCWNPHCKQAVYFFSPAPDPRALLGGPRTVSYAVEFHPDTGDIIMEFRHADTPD
The experiment in a line: Inhibition of PRMT7 catalysed methylation of HNRNPA1 at R194 residue in HEK293T cells assessed as increase in ratio of abundance of unmethylated over methylated peptides at 10 to 50 uM measured after 24 to 48 hrs by UHPLC- MS/MS analysis. The class given is cell-based. To be noted: dose 10-50 µM, time 24-48 hrs.

Inhibition data for one molecule are collected here from ChEMBL document CHEMBL5365419, “Identification of a Protein Arginine Methyltransferase 7 (PRMT7)/Protein Arginine Methyltransferase 9 (PRMT9) Inhibitor” (J Med Chem, 2023).

Active and inactive are the calls of the source. No cut-off for these calls is given here.

Histone-lysine N-methyltransferase, H3 lysine-79 specific (Homo sapiens), sequence (Q8TEK3 whole entry, looked up, the tested form may be a part): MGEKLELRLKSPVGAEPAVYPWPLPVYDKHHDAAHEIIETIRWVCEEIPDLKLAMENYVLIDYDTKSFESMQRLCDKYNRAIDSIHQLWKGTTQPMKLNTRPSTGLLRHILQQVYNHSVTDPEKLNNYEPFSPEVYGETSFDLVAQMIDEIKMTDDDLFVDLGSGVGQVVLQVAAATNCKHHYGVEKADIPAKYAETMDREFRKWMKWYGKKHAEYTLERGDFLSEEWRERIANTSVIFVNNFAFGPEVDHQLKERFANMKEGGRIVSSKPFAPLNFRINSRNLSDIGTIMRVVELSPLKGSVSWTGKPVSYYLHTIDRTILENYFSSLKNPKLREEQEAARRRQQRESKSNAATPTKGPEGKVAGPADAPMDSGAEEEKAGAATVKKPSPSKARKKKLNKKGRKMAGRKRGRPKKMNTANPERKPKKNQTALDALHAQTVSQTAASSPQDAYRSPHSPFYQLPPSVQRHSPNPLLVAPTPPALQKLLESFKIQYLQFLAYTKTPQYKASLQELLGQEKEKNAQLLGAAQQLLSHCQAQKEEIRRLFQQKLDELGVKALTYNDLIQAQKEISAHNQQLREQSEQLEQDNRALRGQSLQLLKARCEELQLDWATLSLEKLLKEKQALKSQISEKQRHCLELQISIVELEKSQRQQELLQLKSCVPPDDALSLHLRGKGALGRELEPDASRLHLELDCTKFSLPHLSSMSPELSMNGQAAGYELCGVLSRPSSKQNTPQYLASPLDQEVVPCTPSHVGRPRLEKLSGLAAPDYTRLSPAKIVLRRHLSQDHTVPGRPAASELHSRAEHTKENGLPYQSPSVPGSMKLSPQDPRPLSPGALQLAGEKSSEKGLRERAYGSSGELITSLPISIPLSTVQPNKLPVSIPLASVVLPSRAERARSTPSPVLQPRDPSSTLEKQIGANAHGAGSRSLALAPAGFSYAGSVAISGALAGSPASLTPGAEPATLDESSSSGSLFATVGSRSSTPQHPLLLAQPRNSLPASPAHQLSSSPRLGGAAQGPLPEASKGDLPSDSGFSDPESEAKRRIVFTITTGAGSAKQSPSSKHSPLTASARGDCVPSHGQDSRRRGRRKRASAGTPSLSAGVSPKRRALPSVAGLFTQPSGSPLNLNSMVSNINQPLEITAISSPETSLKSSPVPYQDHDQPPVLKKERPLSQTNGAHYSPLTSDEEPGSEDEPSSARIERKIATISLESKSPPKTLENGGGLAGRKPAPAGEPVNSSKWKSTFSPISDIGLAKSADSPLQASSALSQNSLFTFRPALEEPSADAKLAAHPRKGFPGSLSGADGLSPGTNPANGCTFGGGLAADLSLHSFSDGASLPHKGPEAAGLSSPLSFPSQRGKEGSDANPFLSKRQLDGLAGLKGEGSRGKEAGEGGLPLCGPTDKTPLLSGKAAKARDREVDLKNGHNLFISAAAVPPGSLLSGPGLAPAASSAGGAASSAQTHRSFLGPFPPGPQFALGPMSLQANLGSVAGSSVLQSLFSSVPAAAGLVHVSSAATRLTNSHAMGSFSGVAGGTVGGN

For the molecule `COC(=O)c1cc(O)c2cc(NC(=O)NCCCNC(=N)NC[C@H]3O[C@@H](n4cnc5c(N)ncnc54)[C@H](O)[C@@H]3O)cc(C(F)(F)F)c2c1`, the inhibition result in assay [1] was “inactive”. Further, the inhibition entry in assay [2] and in assay [3] was “Active” each time.
